The text below walks through data of PMC7198493 (Nature Communications, 2020).

Common to all, as to type: binding
Assay [1] has as its target T1, olfactory marker protein (OMP) (Mus musculus, UniProt Q64288).
T1 construct: Rluc-OMP fusion, wild type
T1 sequence (Q64288 2-163): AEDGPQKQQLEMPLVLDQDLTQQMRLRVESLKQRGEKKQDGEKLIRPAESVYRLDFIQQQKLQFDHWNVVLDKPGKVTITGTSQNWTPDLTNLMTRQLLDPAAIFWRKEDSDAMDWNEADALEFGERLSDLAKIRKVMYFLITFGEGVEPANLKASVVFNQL
Put plainly: BRET from Rluc-OMP to fluorescent 8NBD-cAMP, dose-response (EC50 taken as apparent Kd). (In general: In BRET a luciferase serves as donor, and the signal depends on an acceptor being close.)

For assay [2], the target named is T2, olfactory marker protein (OMP) (Mus musculus, UniProt Q64288, G126E).
T2 construct: Rluc-OMP fusion, G126E mutant
T2 sequence (Q64288 2-163 G126E): T1 sequence (Q64288 2-163) with G125E
The assay can be described thus: BRET from mutant Rluc-OMP to 8NBD-cAMP.

Assay [3] has as its target T1, olfactory marker protein (OMP). The assay can be described thus: competitive BRET displacement of 8NBD-cAMP from Rluc-OMP in HEK293T lysate.

Positions count from the first letter of the chain named. pIC50, pKd: −log10 of the molar value.

Turning to `Nc1ncnc2c1nc(SCCNc1ccc([N+](=O)[O-])c3nonc13)n2[C@@H]1O[C@@H]2COP(=O)(O)O[C@H]2[C@H]1O` [8NBD-cAMP], the pKd in assay [1] was about 5.72. In assay [2], the “BRET from mutant Rluc-OMP to 8NBD-cAMP” value is recorded as “pocket A-mutated Rluc-OMP^G126E retained the low-affinity interaction, whereas the pocket B mutants lost their interaction with 8NBD-cAMP”.

With `Nc1nc2c(ncn2[C@@H]2O[C@@H]3COP(=O)(O)O[C@H]3[C@H]2O)c(=O)[nH]1` [cGMP], in assay [3], the pIC50 is 4.96.

For orientation: pKd means the negative decadic logarithm of the Kd, by convention in mol/L. One may read the pIC50 as the negative decadic logarithm of the IC50, by convention in mol/L. Read a high pIC50 as a small IC50.
